# Data taken from patent publication US8466144B2, “Muscarinic antagonists with parp and sir modulating activity as cytoprotective agents” (Proteosys AG, priority 2004, dated 2013).
# Experiments:
# [1] = tested on: neurons from D3 embryonic stem (ES) cells; assay: Cell culture model for chemical ischemia and neuroprotection (calcium imaging of surviving neurons); assay type: cell-based, mice; conditions: β-methyl-cyclodextrin or filipin
# Procedure: For all experiments, D3 embryonic stem (ES) cells derived from 129/sv mice [Okabe et al., 1996] were cultivated for 12 days, with passages on days 2, 4, 7 and 9 as described previously [Sommer et al., 2004]. Insult conditions: Cells (24-well plates) were pre-incubated with or without 20 nM EPO in fresh medium for 24 hours at 37° C. Cells were rinsed once with low K^+ solution (140 mM NaCl, 4.7 mM KCl, 1.2 mM KH2PO4, 2.5 mM CaCl2, 1.2 mM MgSO4, 11 mM glucose, 15 mM Hepes-NaOH, pH 7.35). Cells (either with or without EPO pre-incubation) were incubated for up to 45 min (37° C.) with either low K^+ solution or with glucose-free low K^+ solution supplemented with 1 mM KCN (chemical ischemia solution [Kume et al., 2002]). Vitality control to asses numbers of surviving neurons was performed by a brief stimulation with a low dose of glutamate (10 μM).
# Functional tests by calcium imaging were performed essentially as described [Sommer et al., 2004]. Briefly, cells were loaded with 2 μM of fura-2 AM in DMEM for 45 min at 37° C. in the dark. Measurements of relative changes in [Ca^2+] were made on an inverted epifluorescence microscope (Olympus IX70 S1F2) with a Polychrom IV Monochromator (Xe-lamp, USHIO). Excitation wavelengths (λ1, λ2) and the emission wavelength were 340, 380 and 510 nm, respectively. […]
# [2] = molecular target: T1, recombinant monomeric PARP-1 (Homo sapiens, UniProt P09874); assay: PARP inhibition assay (R&D Systems); assay type: biochemical; conditions: FIG. 4b
# T1 construct: purchased R&D Systems TA4669
# T1 sequence (P09874 whole entry): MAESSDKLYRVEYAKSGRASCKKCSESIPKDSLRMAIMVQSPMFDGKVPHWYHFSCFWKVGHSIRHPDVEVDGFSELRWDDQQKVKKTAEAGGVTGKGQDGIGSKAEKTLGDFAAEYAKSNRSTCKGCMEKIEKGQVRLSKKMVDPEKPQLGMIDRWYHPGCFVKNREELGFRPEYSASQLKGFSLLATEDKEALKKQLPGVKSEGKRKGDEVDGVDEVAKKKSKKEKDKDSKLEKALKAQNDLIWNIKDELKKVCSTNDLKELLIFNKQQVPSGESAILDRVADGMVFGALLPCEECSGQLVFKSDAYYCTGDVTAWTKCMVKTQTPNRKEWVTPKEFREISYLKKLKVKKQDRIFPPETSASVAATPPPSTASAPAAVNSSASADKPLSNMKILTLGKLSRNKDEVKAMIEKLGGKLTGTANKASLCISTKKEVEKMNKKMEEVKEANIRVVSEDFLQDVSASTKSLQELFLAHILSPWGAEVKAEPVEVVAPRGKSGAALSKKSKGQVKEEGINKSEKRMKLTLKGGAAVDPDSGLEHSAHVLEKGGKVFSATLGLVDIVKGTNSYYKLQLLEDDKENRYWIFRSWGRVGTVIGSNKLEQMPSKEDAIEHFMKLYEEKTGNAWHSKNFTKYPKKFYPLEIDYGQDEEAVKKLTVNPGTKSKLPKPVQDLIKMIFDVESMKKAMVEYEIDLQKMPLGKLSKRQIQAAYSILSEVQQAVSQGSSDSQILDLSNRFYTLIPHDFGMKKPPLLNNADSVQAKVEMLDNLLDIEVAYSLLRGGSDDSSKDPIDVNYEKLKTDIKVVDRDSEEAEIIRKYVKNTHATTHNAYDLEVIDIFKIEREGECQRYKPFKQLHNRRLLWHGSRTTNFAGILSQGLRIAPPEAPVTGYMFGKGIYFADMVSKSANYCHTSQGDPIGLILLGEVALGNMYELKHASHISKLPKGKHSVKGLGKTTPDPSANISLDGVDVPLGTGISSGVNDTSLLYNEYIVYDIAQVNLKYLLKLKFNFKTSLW
# From the text: A PARP inhibition assay from R&D Systems was used (Cat.No. TA4669) according to instructions of the supplier.
# Under cellular conditions PARP-1 poly-ADP-ribosylates a host of nuclear proteins, including topoisomerase 1, 14-3-3 g and PARP-1 itself. Thus under cellular conditions, the self-modification of PARP-1 and dimerization are regulating its activity, moreover there is a tight interplay with PARG (poly-ADP- ribosyl-glycohydroxylase).
# 3T3 fibroblasts = assay: LPS challenge, cell survival by Trypan Blue; assay type: cell-based; conditions: LPS 100 ng/ml for 60 min
# Procedure: (§1) Cell pellets were further investigated by Western blot staining with anti Cox-2 and anti iNOS antibodies of 1D polyacrylamide gels.
# (§2) Cell survival was assessed by Trypan Blue staining.
# A 549 cells = assay: LPS challenge, cell survival by Trypan Blue; assay type: cell-based; conditions: LPS 100 ng/ml for 60 min
# Procedure: as §1, §2
# [3] = tested on: neurally differentiated V56 embryonic stem cells; assay: LPS challenge, cell survival by Trypan Blue; assay type: cell-based; conditions: LPS 100 ng/ml for 60 min
# Procedure: as §1, §2
# [4] = tested on: undifferentiated V56 embryonic stem cells; assay: LPS challenge, cell survival by Trypan Blue; assay type: cell-based; conditions: LPS 100 ng/ml for 60 min
# Procedure: as §1, §2
# PARP-1 = assay: Affinity tag enrichment from cell extracts (1D PAGE, MALDI-TOF, immunostaining); assay type: binding
# Sequence of PARP-1 (P11103 215-1013 limits assumed): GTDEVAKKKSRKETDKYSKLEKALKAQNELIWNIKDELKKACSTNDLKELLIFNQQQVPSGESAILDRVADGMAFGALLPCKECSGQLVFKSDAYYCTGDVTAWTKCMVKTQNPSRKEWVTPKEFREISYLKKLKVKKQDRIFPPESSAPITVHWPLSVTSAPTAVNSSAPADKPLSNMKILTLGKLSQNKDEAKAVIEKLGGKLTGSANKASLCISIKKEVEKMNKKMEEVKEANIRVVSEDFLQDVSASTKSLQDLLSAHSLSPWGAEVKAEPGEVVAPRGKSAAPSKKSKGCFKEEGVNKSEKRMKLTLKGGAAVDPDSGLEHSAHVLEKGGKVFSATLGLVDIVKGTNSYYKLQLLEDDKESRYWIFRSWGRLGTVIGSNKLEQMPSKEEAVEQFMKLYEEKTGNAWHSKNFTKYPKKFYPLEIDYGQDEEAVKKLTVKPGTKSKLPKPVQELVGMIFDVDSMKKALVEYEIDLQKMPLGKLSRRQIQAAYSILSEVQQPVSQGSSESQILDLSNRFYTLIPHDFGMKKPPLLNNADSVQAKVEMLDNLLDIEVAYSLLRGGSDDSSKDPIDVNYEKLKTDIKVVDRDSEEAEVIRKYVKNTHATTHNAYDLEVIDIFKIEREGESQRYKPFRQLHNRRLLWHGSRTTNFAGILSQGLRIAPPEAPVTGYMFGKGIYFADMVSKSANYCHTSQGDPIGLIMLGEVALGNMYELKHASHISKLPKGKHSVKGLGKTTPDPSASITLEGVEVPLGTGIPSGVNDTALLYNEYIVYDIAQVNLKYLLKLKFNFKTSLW
# Procedure: (§3) A reactive —SCN group is introduced which binds to lysines in or near the binding site of the compound. A biotinylated linker serves for enrichment of bound protein. The synthesis is described in FIG. 1.
# (§4) The affinity reagent 11 was used to bind the target covalently from fractionations of crude cell extracts of D3 ES cells and other cell lines, subsequently the affinity purified material was analysed by 1D PAGE, immunostaining, and mass spectrometry.
# (§5) The subsequent fractionation, isolation and further analysis was performed according to published standard procedures (Sommer et al. 2004). A commercial anti-PARP antibody was used for staining Western blots. Mass spectrometry for independent identification of pirenzepine-tagged proteins was performed as described elsewhere recently (Vogt et al., 2003, Cahill et al., 2003).
# (§6) A reactive —SCN group binds to lysins in or near the binding site of the compound. A biotinylated linker serves for enrichment of bound protein. The final affinity reagent, thiocyanato-11-[2-(4-biocytinyl-piperazin-1-yl)-acetyl]-5,11-dihydro-benzo[e]pyrido [3,2-b] [1,4] diazepin-6-one (compound (11), FIG. 1), was used to bind the target covalently from fractionations of crude cell extracts of D3 embryonic stem cells, subsequently the affinity purified material was analysed by 1D PAGE (FIG. 3a), mass spectrometry and immunostaining. […]
# SIR-2 = molecular target: T2, SIR-2 (Mus musculus, UniProt Q923E4); assay: as above; assay type: binding
# T2 construct: endogenous in cells; host or cells: D3 embryonic stem cells / V56 embryonic stem cells (crude extract)
# T2 sequence (Q923E4 1-737): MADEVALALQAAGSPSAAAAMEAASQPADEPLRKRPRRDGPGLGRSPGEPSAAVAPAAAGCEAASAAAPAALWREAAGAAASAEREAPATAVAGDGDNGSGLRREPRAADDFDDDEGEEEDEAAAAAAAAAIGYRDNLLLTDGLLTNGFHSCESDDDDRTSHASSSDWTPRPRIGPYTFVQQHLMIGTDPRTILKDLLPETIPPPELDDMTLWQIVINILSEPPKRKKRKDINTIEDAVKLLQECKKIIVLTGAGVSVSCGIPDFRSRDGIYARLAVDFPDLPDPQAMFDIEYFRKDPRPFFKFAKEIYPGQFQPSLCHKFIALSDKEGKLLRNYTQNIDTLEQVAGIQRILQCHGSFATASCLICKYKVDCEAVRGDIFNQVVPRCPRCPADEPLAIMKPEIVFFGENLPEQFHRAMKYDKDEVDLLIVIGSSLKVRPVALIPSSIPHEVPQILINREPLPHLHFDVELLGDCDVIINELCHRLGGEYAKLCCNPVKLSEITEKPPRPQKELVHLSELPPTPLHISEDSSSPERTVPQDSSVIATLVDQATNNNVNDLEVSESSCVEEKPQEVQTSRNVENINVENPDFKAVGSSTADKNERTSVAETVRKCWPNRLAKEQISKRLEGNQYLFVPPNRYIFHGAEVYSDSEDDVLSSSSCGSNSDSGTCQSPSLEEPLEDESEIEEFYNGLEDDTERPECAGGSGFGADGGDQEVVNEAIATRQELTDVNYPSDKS
# Procedure: as §3, §4, §5, §6
PARP-1 inhibition (in words) [2],Compound,neuroprotective effect in the presence of raft-disrupting conditions [1],protection from LPS challenge (3T3 fibroblasts),protection from LPS challenge (A 549 cells),protection from LPS challenge [3],protection from LPS challenge [4],interaction with PARP-1 (PARP-1),interaction with SIR-2 (SIR-2)
rather weak PARP-1 inhibitor,CN1CCN(CC(=O)N2c3ccccc3C(=O)Nc3cccnc32)CC1 [Pirenzepine],does not occur,protect from LPS challenge,protect from LPS challenge,protect from LPS challenge,protect from LPS challenge,–,–
–,"thiocyanato 11-[2-(4-biocytinyl-piperazin-1-yl)-acetyl]-5,11-dihydro-benzo[e]pyrido[3,2-b][1,4]diazepin-6-one [affinity tag]",–,–,–,–,–,interacts with both proteins,interacts with both proteins
